Measurements reported in ChEMBL document CHEMBL1201862, “PubChem BioAssay data set” (2004).
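96-well plates; 48 h exposure; 5 concentrations. Endpoints by linear interpolation between flanking doses. Not reached: highest tested concentration assigned. Abbreviation: GI50, concentration required for 50% inhibition of growth.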 The source made the active and inactive calls. Rule as the data show it: active = GI50 up to about 1.1 µM and inactive = higher.

Columns and labels:
Assay in all cases: DTP human tumour cell line panel, 48 h
[1] = system: SK-MEL-28
[2] = system: U-251
[3] = system: UO-31
[4] = system: SK-MEL-5
[5] = system: SF-268
[6] = system: M14
[7] = system: OVCAR-8
[8] = system: SW-620
[9] = system: SNB-19
[10] = system: LOX IMVI
[11] = system: SF-295
[12] = system: RPMI-8226
[13] = system: SN12C
[14] = system: NCI-H460
[15] = system: CAKI-1
[16] = system: HCT-116
[17] = system: HT-29
[18] = system: HOP-62
[19] = system: RXF 393
[20] = system: NCI-H23

Measured: GI50

CNc1ccccc1-c1nc2ccccc2c(=O)o1
inactive: [1] > 100 µM | [2] > 100 µM | [3] > 100 µM | [4] > 100 µM | [5] 32 µM | [6] > 100 µM | [7] > 100 µM | [8] > 100 µM | [9] > 100 µM | [10] > 100 µM | [11] 41.2 µM | [12] > 100 µM | [13] > 100 µM | [14] > 100 µM | [15] > 100 µM | [16] > 100 µM

COC(=O)C1(Cc2ccccc2)Cc2cc3c(cc2C1)CCC3
inactive: [1] 41.1 µM | [2] 22.4 µM | [3] 24 µM | [4] 17.2 µM | [5] 41.4 µM | [17] 10.5 µM | [6] 30.6 µM | [7] 25.3 µM | [8] 36.1 µM | [9] 37.6 µM | [10] 18.6 µM | [18] 50.2 µM | [11] 37.5 µM | [19] 20.1 µM | [12] 15.4 µM | [20] 38.5 µM | [13] 42.3 µM | [14] 33.3 µM | [16] 22 µM

CN(N)c1nc(N)c(C#N)c(C#N)c1C#N
inactive: [1] > 10 µM | [2] > 10 µM | [4] > 10 µM | [5] > 10 µM | [17] > 10 µM | [6] > 10 µM | [7] > 10 µM | [8] > 10 µM | [9] > 10 µM | [10] > 10 µM | [18] > 10 µM | [11] > 10 µM | [12] > 10 µM | [20] > 10 µM | [13] > 10 µM | [15] > 10 µM | [16] > 10 µM

COC(=O)c1ccc(/C=C2\N=C(C)OC2=O)cc1
inactive: [1] > 100 µM | [2] > 100 µM | [4] > 100 µM | [5] > 100 µM | [17] > 100 µM | [6] > 100 µM | [7] > 100 µM | [8] > 100 µM | [9] > 100 µM | [10] > 100 µM | [18] > 100 µM | [11] > 100 µM | [12] > 100 µM | [20] > 100 µM | [13] > 100 µM | [14] > 100 µM | [15] > 100 µM | [16] > 100 µM

CC(=O)OC/C=C\Cn1ncc(=O)[nH]c1=O
inactive: [1] 21.4 µM | [2] 15 µM | [3] 16.1 µM | [4] 12.6 µM | [5] 18 µM | [17] 14.2 µM | [6] 19 µM | [7] 23.7 µM | [8] 17.1 µM | [9] 33.4 µM | [10] 3.32 µM | [18] 20.8 µM | [19] 17.8 µM | [12] 7.71 µM | [20] 13.6 µM | [13] 22.9 µM | [14] 23.3 µM

Nc1n[nH]c(CCCCCCCc2nnc(N)[nH]2)n1
inactive: [1] > 100 µM | [2] > 100 µM | [3] > 100 µM | [5] > 100 µM | [17] > 100 µM | [6] > 100 µM | [9] > 100 µM | [10] > 100 µM | [18] > 100 µM | [19] > 100 µM | [12] > 100 µM | [20] > 100 µM | [13] > 100 µM | [14] > 100 µM | [16] > 100 µM

CN1C2CCC1CC(C)(O)C2 (stereo not drawn)
inactive: [1] > 100 µM | [2] > 100 µM | [3] > 100 µM | [5] > 100 µM | [17] > 100 µM | [6] > 100 µM | [7] > 100 µM | [8] > 100 µM | [9] > 100 µM | [10] > 100 µM | [18] > 100 µM | [11] > 100 µM | [19] > 100 µM | [12] > 100 µM | [20] > 100 µM | [13] > 100 µM | [14] > 100 µM | [16] > 100 µM

Nc1cc(S(=O)(=O)O)cc2cc(S(=O)(=O)O)c(/N=N/c3ccc(-c4ccc(/N=N/c5c(S(=O)(=O)O)cc6cc(S(=O)(=O)O)cc(N)c6c5O)cc4)cc3)c(O)c12
inactive: [1] > 100 µM | [2] > 100 µM | [3] > 100 µM | [4] > 100 µM | [5] > 100 µM | [17] > 100 µM | [7] > 100 µM | [8] > 100 µM | [9] > 100 µM | [10] > 100 µM | [18] > 100 µM | [11] > 100 µM | [19] > 69.5 µM | [12] > 100 µM | [20] > 100 µM | [13] > 100 µM | [14] > 100 µM | [16] > 100 µM
